Records with an inconclusive call do not appear. Activity calls are given as the source filed them.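 Rule for the calls: active = EC50 at or below 10 µM; inconclusive = EC50 above 10 and up to 20 µM; inactive = EC50 above 20 µM.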

The subject of the test is MV4-11 apoptosis, Annexin V flow cytometry, 48 h. As to the kind of experiment: MV4-11 leukemia cell apoptotic death – Annexin V, flow cytometry, dose response (AID 1347409).
Consider `CCNc1ccc(Br)cc(C(=O)/C=C/c2c(Cl)cccc2Cl)c1=O`, for which the EC50 is 4.4 µM.
The same measure for `CCOc1ccc2nc3cc(NC(=O)c4ccco4)ccc3c(N)c2c1`: 1.3 µM; for `Cc1ccc2c(c1)-c1c(c(C(=O)N3CCN(c4cc(C)ccc4C)CC3)nn1C)CS2`: 68.2 µM (inactive).
The value for `Cc1ccc(NC(=O)c2ccc(Cl)cc2Cl)c(S(=O)(=O)O)c1` was 90.1 µM (inactive); that for `NCCCSc1nc2c(c(=O)n1Cc1ccccc1)C1(CCCCC1)Cc1ccccc1-2` was 2.4 µM; that for `COc1ccc(C=C2C(=O)N(Cc3ccco3)C(=O)N(C(C)C)C2=O)cc1` was 60 µM (inactive).
The same measure for `CCCCCCCCCOc1ccc(C#CC(=O)O)cc1`: 32.4 µM (inactive); for `CCOC(=O)c1c(NC(=O)CCC(=O)O)sc(C)c1-c1ccc(CC(C)C)cc1`: 33.6 µM (inactive).
For the compound `CCOc1cccc2c1N[C@@H](c1ccc(C(=O)O)cc1)[C@H]1CC=C[C@@H]21`, the EC50 was 113 µM (inactive).
The value for `Cc1ccc([C@@H]2Nc3c(ccc(C(=O)O)c3C)[C@@H]3C=CC[C@@H]32)cc1` was 94.8 µM (inactive).
The value for `CN(CCC(=O)C=Cc1ccc(Cl)c(Cl)c1)CCc1ccc2c(c1)OCO2` was 5.2 µM.

The record behind these values is PubChem BioAssay AID1347409 (Pan Lab, Icahn School of Medicine at Mount Sinai, 2020).
